Measured values: PubChem BioAssay (NCI)
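Method: 48-hour compound exposure of cells in 96-well plates, five concentrations, linear interpolation of endpoints. TGI: total growth inhibition.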 Where a SMILES comes first, the peptide text is derived from it. The star is where a group is joined. Cbz = O=C(OCc1ccccc1)*; OBn = c1ccc(CO*)cc1

Columns and labels:
Experiment in all cases: NCI tumour cell line growth inhibition, 48 h
SK-MEL-5 melanoma = system: SK-MEL-5 melanoma
OVCAR-8 ovarian = system: OVCAR-8 ovarian
A549 NSCLC = system: A549 NSCLC
SK-MEL-2 melanoma = system: SK-MEL-2 melanoma
OVCAR-3 ovarian = system: OVCAR-3 ovarian
COLO 205 colon = system: COLO 205 colon
SF-268 CNS = system: SF-268 CNS
SNB-75 CNS = system: SNB-75 CNS
MDA-N = system: MDA-N
U251 CNS = system: U251 CNS
HL-60(TB) leukemia = system: HL-60(TB) leukemia
IGROV1 ovarian = system: IGROV1 ovarian
K-562 leukemia = system: K-562 leukemia
ACHN renal = system: ACHN renal
MDA-MB-435 = system: MDA-MB-435
MALME-3M melanoma = system: MALME-3M melanoma
LOX IMVI melanoma = system: LOX IMVI melanoma
SR leukemia = system: SR leukemia
RPMI-8226 leukemia = system: RPMI-8226 leukemia

Compound	TGI (SK-MEL-5 melanoma) [µM]	TGI (OVCAR-8 ovarian) [µM]	TGI (A549 NSCLC) [µM]	TGI (SK-MEL-2 melanoma) [µM]	TGI (OVCAR-3 ovarian) [µM]	TGI (COLO 205 colon) [µM]	TGI (SF-268 CNS) [µM]	TGI (SNB-75 CNS) [µM]	TGI (MDA-N) [µM]	TGI (U251 CNS) [µM]	TGI (HL-60(TB) leukemia) [µM]	TGI (IGROV1 ovarian) [µM]	TGI (K-562 leukemia) [µM]	TGI (ACHN renal) [µM]	TGI (MDA-MB-435) [µM]	TGI (MALME-3M melanoma) [µM]	TGI (LOX IMVI melanoma) [µM]	TGI (SR leukemia) [µM]	TGI (RPMI-8226 leukemia) [µM]
NC1CC(=O)c2cc(Cl)sc21 (centres undefined)	> 100	> 100	> 100	> 100	> 100	> 100	> 100	> 100	> 100	> 100	> 100	> 100	> 100	> 100	> 100	> 100	> 100	–	–
O=C(c1ccc(Cl)cc1Cl)N(C(=O)N1CCC(c2ccccc2)CC1)c1ccccc1	> 100	> 100	> 100	> 100	> 100	> 100	–	> 100	–	> 100	–	> 100	> 100	> 100	> 100	–	> 100	> 100	> 100
C[C@H]1[C@H](C)N(Cc2ccccc2)P(=O)(C(O)/C=C/c2ccccc2)N1Cc1ccccc1 (some centres undefined)	8.7	> 25	> 25	9.66	–	17.4	> 25	17.9	13.6	10	–	> 25	> 25	> 25	8.79	13.4	14.5	20.5	15.6
CC1C2CC(CC(=O)N2)C1(C)C (centres undefined)	> 100	> 100	> 100	–	> 100	> 100	> 100	> 100	> 100	> 100	> 100	> 100	> 100	> 100	> 100	> 100	–	–	–
COc1cc2c(cc1OC)-c1[nH]c3ccc(C#N)cc3c1CC(=O)N2	28	> 100	> 100	–	–	10.6	> 100	> 100	> 90.6	> 100	7.45	> 100	–	> 100	> 100	> 100	> 33.6	–	–
CCc1nnc(CC)n1NCCCC(=O)O	> 100	> 100	> 100	> 100	> 100	> 100	> 100	> 100	> 100	> 100	–	> 100	> 100	> 100	> 100	–	> 100	> 100	> 100
Cn1nc(Cc2ccc(Cl)cc2)n(N)c1=O	> 100	> 100	> 100	–	–	–	> 100	> 100	> 100	> 100	–	> 100	> 100	> 100	> 100	> 100	–	–	> 100
O=C(O)C1C(C(=O)O)C2C(=O)C=CC1N2Cc1ccccc1 (centres undefined)	17.2	> 100	22.4	24.1	10.1	22.1	11.3	6.97	11.4	14.2	4.31	27.1	> 100	14.2	13.4	8.73	19.1	–	13.6
O=C(O)C1CC2C3CCC2C1C3=O (centres undefined)	> 100	> 100	> 100	> 100	> 100	> 100	> 100	> 100	> 100	> 100	> 100	> 100	> 100	> 100	> 100	> 100	> 100	> 100	–
CCOC(=O)/C(N=Nc1ccc(-n2c(C)nc3ccccc3c2=O)cc1)=C(/C)O	16	50.5	> 100	> 100	53.1	> 100	> 100	78.4	> 100	> 100	41.2	> 100	> 100	> 100	59.8	–	> 100	> 100	> 100
CSc1nc2ccccc2c(=O)n1/N=C1\C(=O)N(CN2CCCCC2)c2ccc(Cl)cc21	> 100	> 100	> 100	54.6	> 100	36	> 100	58.4	> 100	> 100	50.1	75.1	> 100	> 100	> 100	> 100	28.8	–	–
C[C@@]12C=CC3C/C(=N\C(N)=S)C=C(CCCC4OCCO4)[C@]3(CC1)C2 (some centres undefined)	24.8	68.1	59.7	30.6	39.3	26	87.8	66.3	33.9	48.4	–	37.9	> 100	92.2	45.5	37.6	31.1	60.7	50.8
O=c1n(/N=C/c2ccccc2)c(=O)n2n1C1C=CC2CC1	> 100	> 100	> 100	> 100	> 100	> 100	> 100	> 100	> 100	> 100	> 100	> 100	> 100	> 100	> 100	–	> 100	> 100	> 100
Cc1occc1C(=S)Nc1ccc(Cl)c(C(=O)OCC(F)(F)F)c1	30.9	36.2	58.4	44.9	81.4	67.6	42.3	49.4	> 100	39.3	65.6	39.7	59.1	54.1	37.4	73.7	34.7	–	51.5
COc1cc(Br)c(OC)c2c(OC)cc(C)cc12	–	> 100	–	> 100	> 100	> 100	> 100	> 100	–	> 100	> 100	> 100	> 100	> 100	> 100	> 100	> 100	37.8	> 100
CC1=C/C(=N\OCC(=O)O)CC(c2ccc(C(C)C)cc2)C1 (centres undefined)	34.1	> 100	> 100	> 100	–	> 100	–	–	> 100	> 100	> 100	> 100	> 100	–	> 100	> 100	–	> 100	57.1
N#CC1(C#N)C2CCCCC23OC(=N)C1(C#N)C(c1ccco1)O3 (centres undefined)	31.3	73.6	> 100	45.3	33.5	31.6	67.4	> 100	33.8	–	–	40.3	> 100	94.2	52.8	48.3	37.5	–	–
COC(=O)CNC(=O)C(C)NC(=O)C(CC(=O)OCc1ccccc1)NC(=O)OCc1ccccc1 (stereo not drawn) (Cbz-Asp(OBn)-Ala-Gly-OMe; configuration not given here)	71.8	> 100	> 100	> 100	> 100	> 100	–	> 100	> 100	> 100	–	> 100	> 100	–	> 100	> 100	–	> 100	> 100
CC(C)=CCOc1cc(NC(=S)c2ccoc2C)ccc1Cl	> 100	> 100	> 100	> 100	> 100	> 100	> 100	63.9	> 100	> 100	–	> 100	–	> 100	> 100	> 100	> 100	> 100	> 100
CCOC(=O)CCC(NC(=O)Cc1ccc(Nc2nc3ccccc3nc2-c2ccccc2)cc1)C(=O)OCC (centres undefined)	> 100	> 100	> 100	72.7	–	> 100	23.7	38.3	> 100	78.1	> 100	> 100	> 100	> 100	> 100	> 100	> 100	> 100	–
CCOC(=O)c1cc(Sc2ccc(N)c(C(=O)OCC)c2)ccc1N	> 100	> 100	> 100	> 100	> 100	> 100	> 100	> 100	> 100	> 100	> 100	> 100	> 100	> 100	–	> 100	–	> 100	> 100
COc1ccc(OC)c2sc(N3C(=O)/C(=C/Cc4ccco4)N=C3c3ccccc3)nc12	80.5	> 100	> 100	67.3	> 100	> 100	> 100	57.8	48.3	54.1	37.9	> 100	> 100	73	60.8	–	70	43.9	> 100
COc1ccc(/C=C2/C(C)=NN(c3cccc(Cl)c3)/C2=N/c2nc3ccccc3s2)cc1	33.7	49.3	–	41.8	48.8	–	66.9	86.6	41.6	47	51.4	46.7	> 100	42.2	> 100	–	33.4	62.6	66.6
O=C(O)c1c[nH]c2c(Sc3ccccc3)nccc2c1=O	> 100	> 100	> 100	> 100	> 100	> 100	> 100	> 100	> 100	> 100	> 100	> 100	–	> 100	> 100	–	> 100	–	–
O=C1CC(=O)NC(=NN2C(=O)CSC2c2ccc(Cl)c(Cl)c2)N1 (centres undefined)	> 100	> 100	> 100	> 100	> 100	> 100	> 100	> 100	> 100	> 100	–	> 100	> 100	> 100	> 100	> 100	–	> 100	> 100
COC(=O)N1C[C@@]2(C=CC3(CC2)OCCO3)c2ccccc21	> 100	> 100	> 100	> 100	> 100	> 100	–	> 100	> 100	> 100	58.4	> 100	> 100	> 100	74.5	–	> 100	> 100	> 100
O=C(NC(C(F)(F)F)(C(F)(F)F)P(=O)(c1ccccc1)c1ccccc1)C(C(F)(F)F)C(F)(F)F	37	72.8	> 100	> 100	69.7	37.4	> 100	91.3	44.2	> 100	63.2	57.7	> 100	30.9	37.7	33.6	58.9	–	91.8
CC(C)c1ccccc1SC1CC(=O)CC(Sc2ccccc2C(C)C)C12O[C@H](c1ccccc1)[C@@H](c1ccccc1)O2 (some centres undefined)	> 100	> 100	> 100	> 100	> 100	> 100	–	–	47.5	40.1	34.8	> 100	–	> 100	55.2	–	97.4	–	61.3
